Experimental data as given in patent US20250282768A1 (Janssen Pharmaceutica NV, priority 2022, published 2025).

Tested on: p-IKKa levels in L363 (NIK translocated multiple myeloma) cells
Test: Assay 2: Effect of compounds on p-IKKa levels in L363 (NIK translocated multiple myeloma) cells
Assay type: cell-based
Conditions: Homo sapiens, L-363, 6 h, read-out: Assay 2 IC50 (nM), p-IKKa (Ser 176/180) in BAFF stimulated L363 cells with MG132, 6 h; average if tested more than once
Experimental: Assay 2: Effect of Compounds on p-IKKa Levels in L363 (NIK Translocated Multiple Myeloma) Cells
All compounds tested were dissolved and serially diluted in DMSO, 1:3 dilution for 11 points in an Echo compatible plate. 100% DMSO was added to columns 12 and 24 of the plate to serve as high and low signal controls. This compound plate was used to spot 20 nL of compound or DMSO into a Greiner 384 well TC plate (781080). The final DMSO concentration was 0.3% (v/v) in cell assays. Human L363 cells (ATCC) were cultured in RPM11640 medium supplemented with GlutaMax, non-essential amino acids, sodium pyruvate and 10% fetal bovine serum. Cells were routinely maintained at densities of 0.2×10^6 cells per ml—2×10^6 cells per mL at 37° C. in a humidified 5% CO2 atmosphere incubator. Cells were passaged twice a week splitting back to obtain the low density. The day before the assay, cells were washed twice in HBSS (Hank's Balanced Salt Solution), resuspended in Dulbecco's Modified Eagle Medium (DMEM)+0.5% IgG and protease free BSA (Jackson Immuno Research Laboratories), +/−250 ng/ml recombinant human B-cell activating factor (BAFF/BLyS/TNFSF13B) and incubated overnight at 37° C. in a humidified 5% CO2 atmosphere (bulk stimulation with or without BAFF). The next day, the cell concentration was adjusted to 1×10^7 cells/ml in DMEM+/−250 ng/ml BAFF +/−10 μM MG132 and plated at 10 μl/well into compound or DMSO spotted 384 well TC plates. Seeded cells were incubated at 37° C. in a humidified 5% CO2 atmosphere for 6 h. After 6 h, the plates were removed from the incubator and cell lysis was achieved by the addition of 2.5 μl 5×lysis buffer containing protease and phosphatase inhibitors, followed by shaking on a plate shaker at room temperature for 15 min. At the end of this incubation, lysed cells were sequentially treated and incubated with acceptor and donor bead mixes according to the manufacturer's protocol for a 1 plate/2-incubation suspension cell assay (AlphaLISA SureFire Ultra p-IKKa (Ser 176/180) Assay Kit (Perkin Elmer). Plates were read using an EnVision Multilabel Plate Reader (Perkin Elmer). Within an experiment, a concentration response curve for each compound was run in duplicate. The signal obtained in the test wells was normalized using high signal (BAFF stimulated cells, DMSO, MG132) and low signal (unstimulated cells, DMSO) controls. To determine the IC50, a sigmoidal curve was fitted to the plot of % inhibition versus Log10 compound concentration.

First: CN1CC[C@@](O)(c2cc(-c3cccc(-c4ccnc(NC(c5cnn(C)c5)C(F)(F)F)n4)n3)no2)C1=O (mixture of isomers) [Example 96, (R)-3-Hydroxy-1-methyl-3-(3-(6-(2-(((RS)-2,2,2-trifluoro-1-(1-methyl-1H-pyrazol-4-yl)ethyl)amino)pyrimidin-4-yl)pyridin-2-yl)isoxazol-5-yl)pyrrolidin-2-one]
Second: C[C@@H](Nc1nccc(-c2cccc(-c3cc([C@]4(O)CCN(C)C4=O)on3)n2)n1)c1cnn(C)c1 (single isomer, unassigned) [Example 69]
The IC50 of the first is higher: 50 to 500 nM for the first, less than 50 nM for the second. The second is the more potent here.

First: CN1CC[C@@](O)(c2cc(-c3cccc(-c4ccnc(NC5CCN(C6CC6)C5)n4)n3)no2)C1=O (mixture of isomers) [Example 448, (3R)-3-(3-(6-(2-((1-Cyclopropylpyrrolidin-3-yl)amino)pyrimidin-4-yl)pyridin-2-yl)isoxazol-5-yl)-3-hydroxy-1-methylpyrrolidin-2-one]
Second: CN1CC[C@@](O)(c2cc(-c3cccc(-c4ccnc(NC5CCSC5)n4)n3)no2)C1=O (mixture of isomers) [Example 456, (3R)-3-Hydroxy-1-methyl-3-(3-(6-(2-((tetrahydrothiophen-3-yl)amino)pyrimidin-4-yl)pyridin-2-yl)isoxazol-5-yl)pyrrolidin-2-one]
The IC50 of the first is higher: greater than 500 nM for the first, 50 to 500 nM for the second. The second is the more potent here.

`CN1CC[C@@](O)(c2cc(-c3cccc(-c4ccnc(NC5COCC(F)(F)C5)n4)n3)no2)C1=O` (mixture of isomers) [Example 459, (3R)-3-(3-(6-(2-((5,5-Difluorotetrahydro-2H-pyran-3-yl)amino)pyrimidin-4-yl)pyridin-2-yl)isoxazol-5-yl)-3-hydroxy-1-methylpyrrolidin-2-one] and `CN1CC[C@@](O)(c2cc(-c3cccc(-c4ccnc(NC5COCC5(F)F)n4)n3)no2)C1=O` (mixture of isomers) [Example 465, (3R)-3-(3-(6-(2-((4,4-Difluorotetrahydrofuran-3-yl)amino)pyrimidin-4-yl)pyridin-2-yl)isoxazol-5-yl)-3-hydroxy-1-methylpyrrolidin-2-one] fall in the same range of IC50: 50 to 500 nM for the first, 50 to 500 nM for the second.

Compared with `COC(CNc1nccc(-c2cccc(-c3cc([C@]4(O)CCN(C)C4=O)on3)n2)n1)C(F)(F)F` (mixture of isomers) [Example 461, (3R)-3-Hydroxy-1-methyl-3-(3-(6-(2-((3,3,3-trifluoro-2-methoxypropyl)amino)pyrimidin-4-yl)pyridin-2-yl)isoxazol-5-yl)pyrrolidin-2-one], `C[C@H](Nc1nccc(-c2cccc(-c3cc([C@]4(O)CCN(C)C4=O)on3)n2)n1)c1cnn(C)c1` (single isomer, unassigned) [Example 70] is higher in IC50: 50 to 500 nM for the first, greater than 500 nM for the second.

`CN1CC[C@@](O)(c2cc(-c3cccc(-c4ccnc(NC5CCOc6ncccc65)n4)n3)no2)C1=O` (mixture of isomers) [Example 472, (3R)-3-(3-(6-(2-((3,4-Dihydro-2H-pyrano[2,3-b]pyridin-4-yl)amino)pyrimidin-4-yl)pyridin-2-yl)isoxazol-5-yl)-3-hydroxy-1-methylpyrrolidin-2-one] and `CC1CCCCC1Nc1nccc(-c2cccc(-c3cc([C@]4(O)CCN(C)C4=O)on3)n2)n1` (mixture of isomers) [Example 341, (3R)-3-Hydroxy-1-methyl-3-(3-(6-(2-(((rac)-2-methylcyclohexyl)amino)pyrimidin-4-yl)pyridin-2-yl)isoxazol-5-yl)pyrrolidin-2-one] fall in the same range of IC50: 50 to 500 nM for the first, 50 to 500 nM for the second.

`CC1CC(Nc2nccc(-c3cccc(-c4cc([C@]5(O)CCN(C)C5=O)on4)n3)n2)CO1` (mixture of isomers) [Example 343, (R)-3-Hydroxy-1-methyl-3-(3-(6-(2-(((rac)-5-methyltetrahydrofuran-3-yl)amino)pyrimidin-4-yl)pyridin-2-yl)isoxazol-5-yl)pyrrolidin-2-one] and `C[C@@H](Nc1nccc(-c2cccc(-c3cc([C@]4(O)CCN(C)C4=O)on3)n2)n1)c1ccnn1C` (single isomer, unassigned) [Example 67] fall in the same range of IC50: 50 to 500 nM for the first, 50 to 500 nM for the second.

First: C[C@H](Nc1nccc(-c2cccc(-c3cc([C@]4(O)CCN(C)C4=O)on3)n2)n1)c1ccnn1C (single isomer, unassigned) [Example 68]
Second: CN1CC[C@@](O)(c2cc(-c3cccc(-c4ccnc(Nc5cnn(C)c5Cl)n4)n3)n[nH]2)C1=O (single isomer, unassigned) [Example 104]
The IC50 of the first is lower: 50 to 500 nM for the first, greater than 500 nM for the second. The first is the more potent here.

Compared with `CN1CC[C@@](O)(c2cnn(-c3cccc(-c4ccnc(Nc5cnn(C)c5)n4)n3)c2)C1=O` (single isomer, unassigned) [Example 76], `CN1CC[C@](O)(c2cnn(-c3cccc(-c4ccnc(Nc5cnn(C)c5)n4)n3)c2)C1=O` (single isomer, unassigned) [Example 77] is lower in IC50: greater than 500 nM for the first, 50 to 500 nM for the second. The second is the more potent here.

`CN1CC[C@@](O)(c2cnc(-c3cccc(-c4ccnc(Nc5ccn(C)n5)n4)n3)s2)C1=O` (single isomer, unassigned) [Example 78] and `CN1CC[C@](O)(c2cnc(-c3cccc(-c4ccnc(Nc5ccn(C)n5)n4)n3)s2)C1=O` (single isomer, unassigned) [Example 79] cannot be ordered by IC50: greater than 500 nM for the first, greater than 500 nM for the second.

`CN1CC[C@](O)(c2csc(-c3cccc(-c4ccnc(Nc5ccn(C)n5)n4)n3)n2)C1=O` (single isomer, unassigned) [Example 80] and `CN1CC[C@@](O)(c2csc(-c3cccc(-c4ccnc(Nc5ccn(C)n5)n4)n3)n2)C1=O` (single isomer, unassigned) [Example 81] cannot be ordered by IC50: greater than 500 nM for the first, greater than 500 nM for the second.

Compared with `CN1CC[C@@](O)(c2ncc(-c3cccc(-c4ccnc(Nc5ccn(C)n5)n4)n3)s2)C1=O` (single isomer, unassigned) [Example 82], `CN1CC[C@](O)(c2ncc(-c3cccc(-c4ccnc(Nc5ccn(C)n5)n4)n3)s2)C1=O` (single isomer, unassigned) [Example 83] is lower in IC50: greater than 500 nM for the first, 50 to 500 nM for the second. The second is the more potent here.

First: CN1CC[C@](O)(c2cc(-c3cccc(-c4ccnc(Nc5ccn(C)n5)n4)n3)[nH]n2)C1=O (single isomer, unassigned) [Example 84]
Second: CN1CC[C@@](O)(c2cc(-c3cccc(-c4ccnc(Nc5ccn(C)n5)n4)n3)[nH]n2)C1=O (single isomer, unassigned) [Example 85]
The IC50 of the first is higher: greater than 500 nM for the first, 50 to 500 nM for the second.

`CN1CC[C@](O)(c2cn(-c3cccc(-c4ccnc(Nc5ccn(C)n5)n4)n3)cn2)C1=O` (single isomer, unassigned) [Example 87] and `CN1CC[C@@](O)(c2cn(-c3cccc(-c4ccnc(Nc5cnn(C)c5Cl)n4)n3)cn2)C1=O` (single isomer, unassigned) [Example 107] cannot be ordered by IC50: greater than 500 nM for the first, greater than 500 nM for the second.

First: CN1CC[C@](O)(c2cc(-c3cccc(-c4ccnc(Nc5cnn(C)c5Cl)n4)n3)n[nH]2)C1=O (single isomer, unassigned) [Example 105]
Second: CN1CC[C@](O)(c2nccn2-c2cccc(-c3ccnc(Nc4cnn(C)c4Cl)n3)n2)C1=O (single isomer, unassigned) [Example 106, (*S)-3-(1-(6-(2-((5-Chloro-1-methyl-1H-pyrazol-4-yl)amino)pyrimidin-4-yl)pyridin-2-yl)-1H-imidazol-2-yl)-3-hydroxy-1-methylpyrrolidin-2-one]
The IC50 of the first is lower: 50 to 500 nM for the first, greater than 500 nM for the second. The first is the more potent here.

`CN1CC[C@](O)(c2cn(-c3cccc(-c4ccnc(Nc5cnn(C)c5Cl)n4)n3)cn2)C1=O` (single isomer, unassigned) [Example 108] was tested, and the IC50 was 50 to 500 nM.
